target: T1, HIV-integrase (recombinant integrase) (Human immunodeficiency virus type 1 group M subtype B, UniProt P12497); experiment: HIV-Integrase Inhibition Activity (SPA bead strand-transfer assay); assay type: biochemical; settings: biotin labeled substrate DNA on SPA beads, P33 labeled target DNA, read-out: Activity (IC50 against HIV-integrase)
T1 construct: Recombinant integrase (0.26 ng) was incubated with the beads
Method: HIV-Integrase Inhibition Activity. To evaluate in-vitro activity against HIV-integrase, 5 pmole of biotin labeled substrate DNA was bound to 100 μg of Streptavidin coated PVT SPA beads (Amersham Pharmacia Biotech). Recombinant integrase (0.26 ng) was incubated with the beads for 90 min at 37° C. Unbound enzyme was removed by washing the complex followed by addition of inhibitors and 0.1 fmol of P33 labeled target DNA. The reaction was stopped by adding EDTA to a final concentration of 10 mM. Samples were counted in TopCountNXT (Packard) and the CPM was used as a measure of integration. The reaction condition was as described in A. Engelman and R. Craigie, J. Virol. 69, 5908-5911 (1995). The sequences of substrate and target DNA were described in Nucleic Acid Research 22, 1121-1122 (1994). Activity equal to A refers to a compound having IC50=0.002 to 0.10 μM while B and C denote compounds having IC50=0.1 to 1.0 μM and IC50≧1.0 μM respectively.

| Compound | IC50 |
| --- | --- |
| CC1c2nc(C(=O)NCc3ccc(F)cc3)c(O)c(=O)n2CCCS1(=O)=O (centres unmarked) [Example 22, 6H-Pyrimido[2,1-c][1,4]thiazepine-2-carboxamide, N-[(4-fluorophenyl)methyl]-4,7,8,10-tetrahydro-3-hydroxy-10-methyl-4-oxo-, 9,9-dioxide] | 0.002 to 0.1 µM |
| Cc1ncnn1-c1cc(F)ccc1CNC(=O)c1nc2n(c(=O)c1O)CCS(=O)(=O)C21CCCC1 [Example 15, Spiro[cyclopentane-1,9′(4′H)-pyrimido[2,1-c][1,4]thiazine]-2′-carboxamide, N-[[4-fluoro-2-(5-methyl-1H-1,2,4-triazol-1-yl)phenyl]methyl]-6′,7′-dihydro-3′-hydroxy-4′-oxo-, 8′,8′-dioxide] | 0.002 to 0.1 µM |
| CC1SCCCn2c1nc(C(=O)NCc1ccc(F)cc1)c(O)c2=O (centres unmarked) [Example 20, N-(4-Fluorobenzyl)-3-hydroxy-10-methyl-4-oxo-6,7,8,10-tetrahydro-4H-pyrimido[2,1-c][1,4]thiazepine-2-carboxamide] | 0.002 to 0.1 µM |
| Cc1ncnn1-c1cc(F)ccc1CNC(=O)c1nc2n(c(=O)c1O)CCS(=O)(=O)C21CC1 [Example 11, Spiro[cyclopropane-1,9′(4′H)-pyrimido[2,1-c][1,4]thiazine]-2′-carboxamide, N-[[4-fluoro-2-(5-methyl-1H-1,2,4-triazol-1-yl)phenyl]methyl]-6′,7′-dihydro-3′-hydroxy-4′-oxo-, 8′,8′-dioxide] | 0.002 to 0.1 µM |
| Cc1ncn(-c2cc(F)ccc2CNC(=O)c2nc3n(c(=O)c2O)CCS(=O)(=O)C3(C)C)n1 [Example 6, Pyrimido[2,1-c][1,4]thiazine-2-carboxamide, N-[[4-fluoro-2-(3-methyl-1H-1,2,4-triazol-1-yl)phenyl]methyl]-4,6,7,9-tetrahydro-3-hydroxy-9,9-dimethyl-4-oxo-, 8,8-dioxide] | 0.002 to 0.1 µM |
| O=C(NCc1ccc(F)cc1)c1nc2n(c(=O)c1O)CCS(=O)(=O)C21CCCC1 [Example 12, Spiro[cyclopentane-1,9′(4′H)-pyrimido[2,1-c][1,4]thiazine]-2′-carboxamide, N-[(4-fluorophenyl)methyl]-6′,7′-dihydro-3′-hydroxy-4′-oxo-, 8′,8′-dioxide] | 0.002 to 0.1 µM |
| CC1c2nc(C(=O)NCc3ccc(F)cc3)c(O)c(=O)n2CCS1(=O)=O (centres unmarked) [Example 3, Pyrimido[2,1-c][1,4]thiazine-2-carboxamide, N-[(4-fluorophenyl)methyl]-4,6,7,9-tetrahydro-3-hydroxy-9-methyl-4-oxo-, 8,8-dioxide] | 0.002 to 0.1 µM |
| O=C(NCc1ccc(F)cc1-n1cncn1)c1nc2n(c(=O)c1O)CCCS(=O)(=O)C21CCOCC1 [Example 28, Spiro[4H-pyran-4,10′(4′H)-[6H]pyrimido[2,1-c][1,4]thiazepine]-2′-carboxamide, N-[[4-fluoro-2-(1H-1,2,4-triazol-1-yl)phenyl]methyl]-2,3,5,6,7′,8′-hexahydro-3′-hydroxy-4′-oxo-, 9′,9′-dioxide] | 0.002 to 0.1 µM |
| Cc1ncn(-c2cc(F)ccc2CNC(=O)c2nc3n(c(=O)c2O)CCS(=O)(=O)C32CC2)n1 [Example 10, Spiro[cyclopropane-1,9′(4′H)-pyrimido[2,1-c][1,4]thiazine]-2′-carboxamide, N-[[4-fluoro-2-(3-methyl-1H-1,2,4-triazol-1-yl)phenyl]methyl]-6′,7′-dihydro-3′-hydroxy-4′-oxo-, 8′,8′-dioxide] | 0.002 to 0.1 µM |
| O=C(NCc1ccc(F)cc1)c1nc2n(c(=O)c1O)CCSC2 [Example 1, N-(4-fluorobenzyl)-3-hydroxy-4-oxo-4,6,7,9-tetrahydropyrimido[2,1-c][1,4]thiazine-2-carboxamide] | 0.002 to 0.1 µM |
| O=C(NCc1ccc(F)cc1)c1nc2n(c(=O)c1O)CCCS(=O)(=O)C21CC1 [Example 24, Spiro[cyclopropane-1,10′(4′H)-[6H]pyrimido[2,1-c][1,4]thiazepine]-2′-carboxamide, N-[(4-fluorophenyl)methyl]-7′,8′-dihydro-3′-hydroxy-4′-oxo-, 9′,9′-dioxide] | 0.002 to 0.1 µM |
| Cc1ncnn1-c1cc(F)ccc1CNC(=O)c1nc2n(c(=O)c1O)CCS(=O)(=O)C21CCOCC1 [Example 18, Spiro[4H-pyran-4,9′(4′H)-pyrimido[2,1-c][1,4]thiazine]-2′-carboxamide, N-[[4-fluoro-2-(5-methyl-1H-1,2,4-triazol-1-yl)phenyl]methyl]-2,3,5,6,6′,7′-hexahydro-3′-hydroxy-4′-oxo-, 8′,8′-dioxide] | 0.002 to 0.1 µM |
| CC1(C)c2nc(C(=O)NCc3ccc(F)cc3-n3cncn3)c(O)c(=O)n2CCS1(=O)=O [Example 5, Pyrimido[2,1-c][1,4]thiazine-2-carboxamide, N-[[4-fluoro-2-(1H-1,2,4-triazol-1-yl)phenyl]methyl]-4,6,7,9-tetrahydro-3-hydroxy-9,9-dimethyl-4-oxo-, 8,8-dioxide] | 0.002 to 0.1 µM |
| O=C(NCc1ccc(F)cc1-n1cncn1)c1nc2n(c(=O)c1O)CCS(=O)(=O)C21CC1 [Example 9, Spiro[cyclopropane-1,9′(4′H)-pyrimido[2,1-c][1,4]thiazine]-2′-carboxamide, N-[[4-fluoro-2-(1H-1,2,4-triazol-1-yl)phenyl]methyl]-6′,7′-dihydro-3′-hydroxy-4′-oxo-, 8′,8′-dioxide] | 0.002 to 0.1 µM |
| Cc1ncn(-c2cc(F)ccc2CNC(=O)c2nc3n(c(=O)c2O)CCS(=O)(=O)C32CCCC2)n1 [Example 14, Spiro[cyclopentane-1,9′(4′H)-pyrimido[2,1-c][1,4]thiazine]-2′-carboxamide, N-[[4-fluoro-2-(3-methyl-1H-1,2,4-triazol-1-yl)phenyl]methyl]-6′,7′-dihydro-3′-hydroxy-4′-oxo-, 8′,8′-dioxide] | 0.002 to 0.1 µM |
| O=C(NCc1ccc(F)cc1)c1nc2n(c(=O)c1O)CCS(=O)(=O)C21CC1 [Example 8, Spiro[cyclopropane-1,9′(4′H)-pyrimido[2,1-c][1,4]thiazine]-2′-carboxamide, N-[(4-fluorophenyl)methyl]-6′,7′-dihydro-3′-hydroxy-4′-oxo-, 8′,8′-dioxide] | 0.002 to 0.1 µM |
| CC1(C)c2nc(C(=O)NCc3ccc(F)cc3)c(O)c(=O)n2CCS1(=O)=O [Example 4, Pyrimido[2,1-c][1,4]thiazine-2-carboxamide, N-[(4-fluorophenyl)methyl]-4,6,7,9-tetrahydro-3-hydroxy-9,9-dimethyl-4-oxo-, 8,8-dioxide] | 0.002 to 0.1 µM |
| CC1(C)c2nc(C(=O)NCc3ccc(F)cc3)c(O)c(=O)n2CCCS1(=O)=O [Example 23, 6H-Pyrimido[2,1-c][1,4]thiazepine-2-carboxamide, N-[(4-fluorophenyl)methyl]-4,7,8,10-tetrahydro-3-hydroxy-10,10-dimethyl-4-oxo-, 9,9-dioxide] | 0.002 to 0.1 µM |
| O=C(NCc1ccc(F)cc1-n1cncn1)c1nc2n(c(=O)c1O)CCS(=O)(=O)C21CCOCC1 [Example 17, Spiro[4H-pyran-4,9′(4′H)-pyrimido[2,1-c][1,4]thiazine]-2′-carboxamide, N-[[4-fluoro-2-(1H-1,2,4-triazol-1-yl)phenyl]methyl]-2,3,5,6,6′,7′-hexahydro-3′-hydroxy-4′-oxo-, 8′,8′-dioxide] | 0.002 to 0.1 µM |
| O=C(NCc1ccc(F)cc1)c1nc2n(c(=O)c1O)CCS(=O)(=O)C2 [Example 2, Pyrimido[2,1-c][1,4]thiazine-2-carboxamide, N-[(4-fluorophenyl)methyl]-4,6,7,9-tetrahydro-3-hydroxy-4-oxo-, 8,8-dioxide] | 0.1 to 1 µM |
| O=C(NCc1ccc(F)cc1)c1nc2n(c(=O)c1O)CCCS(=O)(=O)C21CCCC1 [Example 25, Spiro[cyclopentane-1,10′(4′H)-[6H]pyrimido[2,1-c][1,4]thiazepine]-2′-carboxamide, N-[(4-fluorophenyl)methyl]-7′,8′-dihydro-3′-hydroxy-4′-oxo-, 9′,9′-dioxide] | 0.002 to 0.1 µM |
| Cc1cc(CNC(=O)c2nc3n(c(=O)c2O)CCCS(=O)(=O)C32CCOCC2)ccc1F [Example 27, Spiro[4H-pyran-4,10′(4′H)-[6H]pyrimido[2,1-c][1,4]thiazepine]-2′-carboxamide, N-[(4-fluoro-3-methylphenyl)methyl]-2,3,5,6,7′,8′-hexahydro-3′-hydroxy-4′-oxo-, 9′,9′-dioxide] | 0.002 to 0.1 µM |
| Cc1ncnn1-c1cc(F)ccc1CNC(=O)c1nc2n(c(=O)c1O)CCS(=O)(=O)C2(C)C [Example 7, Pyrimido[2,1-c][1,4]thiazine-2-carboxamide, N-[[4-fluoro-2-(5-methyl-1H-1,2,4-triazol-1-yl)phenyl]methyl]-4,6,7,9-tetrahydro-3-hydroxy-9,9-dimethyl-4-oxo-8,8-dioxide] | 0.002 to 0.1 µM |
| Cc1ncnn1-c1cc(F)ccc1CNC(=O)c1nc2n(c(=O)c1O)CCCS(=O)(=O)C21CCOCC1 [Example 29, Spiro[4H-pyran-4,10′(4′H)-[6H]pyrimido[2,1-c][1,4]thiazepine]-2′-carboxamide, N-[[4-fluoro-2-(5-methyl-1H-1,2,4-triazol-1-yl)phenyl]methyl]-2,3,5,6,7′,8′-hexahydro-3′-hydroxy-4′-oxo-, 9′,9′-dioxide] | 0.002 to 0.1 µM |
| O=C(NCc1ccc(F)cc1)c1nc2n(c(=O)c1O)CCCSC2 [Example 19, N-(4-Fluorobenzyl)-3-hydroxy-4-oxo-6,7,8,10-tetrahydro-4H-pyrimido[2,1-c][1,4]thiazepine-2-carboxamide] | 0.002 to 0.1 µM |
| O=C(NCc1ccc(F)cc1)c1nc2n(c(=O)c1O)CCCS(=O)(=O)C2 [Example 21, 6H-Pyrimido[2,1-c][1,4]thiazepine-2-carboxamide, N-[(4-fluorophenyl)methyl]-4,7,8,10-tetrahydro-3-hydroxy-4-oxo-, 9,9-dioxide] | 0.002 to 0.1 µM |
